# Where two headings read alike, the source gives them in different places.
# Experiments:
# [1] = system: Escherichia coli K-12 MG1655; test: Growth of K-12 MG1655 in varying concentrations of fumaric, itaconic, malic and succinic acid, Growth Profiler; assay type: cell-based
# Method: (§1) Five colonies from wild-type K-12 MG1655 and 10 individual colonies deriving from each population were inoculated into 300 μL M9+1% glucose in 96 well deepwell plates and incubated in a 300 rpm plate shaker at 37° C. The next day, cells were diluted 10× in M9+1% glucose and 30 μL was transferred into clear-bottomed 96 well half-deepwell plates (with rectangular wells) containing M9+1% glucose and M9+1% glucose+52.78 g/L glutaric acid or 55.56 g/L adipic acid, such that the final concentration of glutaric acid or adipic acid was 47.5 g/L or 50 g/L, respectively. In addition, cryogenic glycerol stocks of the overnight culture were saved in a 96 well plate format. Half deepwell plates were incubated at 37° C. with 225 rpm shaking in a Growth Profiler (Enzyscreen), with optical scans of the plates taken at 15 minute intervals. Green pixel values integrated over a 1 mm diameter circular area in each well were converted to OD600 values using a previously determined calibration between OD600 and green pixel values.
# (§2) Additionally, each evolved isolate was tested for cross-tolerance toward other dicarboxylic acids of interest. […] All diacids tested were either the neutral sodium salts, or the free diacid was neutralized with sodium hydroxide to pH 7.0 for testing.
# [2] = system: Escherichia coli K-12 MG1655 and evolved isolates; assay type: cell-based; settings: 45 g/L fumaric acid
# Method: as §1, §2
structure (smiles),measurement,setting,value
O=C(O)/C=C/C(=O)O [fumaric acid],μ (mean),"[1]; growth rate of K-12 MG1655, 10 g/L diacid (sodium salt)",0.662 h^1
same,μ (mean),"[1]; growth rate of K-12 MG1655, 20 g/L diacid (sodium salt)",0.615 h^1
same,μ (mean),"[1]; growth rate of K-12 MG1655, 30 g/L diacid (sodium salt)",0.482 h^1
same,μ (mean),"[1]; growth rate of K-12 MG1655, 40 g/L diacid (sodium salt)",0.285 h^1
same,μ (mean),"[1]; growth rate of K-12 MG1655, 50 g/L diacid (sodium salt)",0.116 h^1
same,tlag (mean),"[1]; lag time of K-12 MG1655, 10 g/L diacid (sodium salt)",5.8 h
same,tlag (mean),"[1]; lag time of K-12 MG1655, 20 g/L diacid (sodium salt)",6.9 h
same,tlag (mean),"[1]; lag time of K-12 MG1655, 30 g/L diacid (sodium salt)",9.5 h
same,tlag (mean),"[1]; lag time of K-12 MG1655, 40 g/L diacid (sodium salt)",15.4 h
same,tlag (mean),"[1]; lag time of K-12 MG1655, 50 g/L diacid (sodium salt)",30.2 h
same,growth rate μ (mean),[2]; strain ADIP1-1,0.347 h⁻¹
same,lag time tlag (mean),[2]; strain ADIP1-1,10.2 h
same,growth rate μ (mean),[2]; strain ADIP1-9,0.328 h⁻¹
same,lag time tlag (mean),[2]; strain ADIP1-9,9.8 h
same,growth rate μ (mean),[2]; strain ADIP2-5,0.358 h⁻¹
same,lag time tlag (mean),[2]; strain ADIP2-5,11.4 h
same,growth rate μ (mean),[2]; strain ADIP2-6,0.380 h⁻¹
same,lag time tlag (mean),[2]; strain ADIP2-6,11.0 h
same,growth rate μ (mean),[2]; strain ADIP2-10,0.353 h⁻¹
same,lag time tlag (mean),[2]; strain ADIP2-10,11.0 h
same,growth rate μ (mean),[2]; strain ADIP3-2,0.327 h⁻¹
same,lag time tlag (mean),[2]; strain ADIP3-2,9.4 h
same,growth rate μ (mean),[2]; strain ADIP3-4,0.324 h⁻¹
same,lag time tlag (mean),[2]; strain ADIP3-4,9.7 h
same,growth rate μ (mean),[2]; strain ADIP3-8,0.343 h⁻¹
same,lag time tlag (mean),[2]; strain ADIP3-8,10.1 h
same,growth rate μ (mean),[2]; strain ADIP4-1,0.264 h⁻¹
same,lag time tlag (mean),[2]; strain ADIP4-1,11.9 h
same,growth rate μ (mean),[2]; strain ADIP4-8,0.254 h⁻¹
same,lag time tlag (mean),[2]; strain ADIP4-8,12.4 h
same,growth rate μ (mean),[2]; strain ADIP5-2,0.280 h⁻¹
same,lag time tlag (mean),[2]; strain ADIP5-2,10.6 h
same,growth rate μ (mean),[2]; strain ADIP5-6,0.444 h⁻¹
same,lag time tlag (mean),[2]; strain ADIP5-6,9.0 h
same,growth rate μ (mean),[2]; strain ADIP6-3,0.275 h⁻¹
same,lag time tlag (mean),[2]; strain ADIP6-3,11.3 h
same,growth rate μ (mean),[2]; strain ADIP6-9,0.250 h⁻¹
same,lag time tlag (mean),[2]; strain ADIP6-9,12.3 h
same,growth rate μ (mean),[2]; strain ADIP6-10,0.308 h⁻¹
same,lag time tlag (mean),[2]; strain ADIP6-10,10.0 h
same,growth rate μ (mean),[2]; strain ADIP7-2,0.312 h⁻¹
same,lag time tlag (mean),[2]; strain ADIP7-2,10.1 h
same,growth rate μ (mean),[2]; strain ADIP7-5,0.326 h⁻¹
same,lag time tlag (mean),[2]; strain ADIP7-5,10.0 h
same,growth rate μ (mean),[2]; strain ADIP8-3,0.202 h⁻¹
same,lag time tlag (mean),[2]; strain ADIP8-3,14.4 h
same,growth rate μ (mean),[2]; strain ADIP8-7,0.188 h⁻¹
same,lag time tlag (mean),[2]; strain ADIP8-7,16.1 h
same,growth rate μ (mean),[2]; strain ADIP8-10,0.221 h⁻¹
same,lag time tlag (mean),[2]; strain ADIP8-10,14.3 h
same,growth rate μ (mean),[2]; strain GLUT1-3,0.293 h⁻¹
same,lag time tlag (mean),[2]; strain GLUT1-3,13.3 h
same,growth rate μ (mean),[2]; strain GLUT1-9,0.274 h⁻¹
same,lag time tlag (mean),[2]; strain GLUT1-9,14.9 h
same,growth rate μ (mean),[2]; strain GLUT1-10,0.289 h⁻¹
same,lag time tlag (mean),[2]; strain GLUT1-10,18.9 h
same,growth rate μ (mean),[2]; strain GLUT2-1,0.277 h⁻¹
same,lag time tlag (mean),[2]; strain GLUT2-1,13.5 h
same,growth rate μ (mean),[2]; strain GLUT2-9,0.267 h⁻¹
same,lag time tlag (mean),[2]; strain GLUT2-9,12.2 h
same,growth rate μ (mean),[2]; strain GLUT2-10,0.312 h⁻¹
same,lag time tlag (mean),[2]; strain GLUT2-10,12.3 h
same,growth rate μ (mean),[2]; strain GLUT3-5,0.263 h⁻¹
same,lag time tlag (mean),[2]; strain GLUT3-5,16.6 h
same,growth rate μ (mean),[2]; strain GLUT3-7,0.264 h⁻¹
same,lag time tlag (mean),[2]; strain GLUT3-7,16.2 h
same,growth rate μ (mean),[2]; strain GLUT3-9,0.305 h⁻¹
same,lag time tlag (mean),[2]; strain GLUT3-9,24.3 h
same,growth rate μ (mean),[2]; strain GLUT4-1,0.295 h⁻¹
same,lag time tlag (mean),[2]; strain GLUT4-1,14.6 h
same,growth rate μ (mean),[2]; strain GLUT4-4,0.287 h⁻¹
same,lag time tlag (mean),[2]; strain GLUT4-4,15.3 h
same,growth rate μ (mean),[2]; strain GLUT4-10,0.274 h⁻¹
same,lag time tlag (mean),[2]; strain GLUT4-10,16.3 h
same,growth rate μ (mean),[2]; strain GLUT5-4,0.386 h⁻¹
same,lag time tlag (mean),[2]; strain GLUT5-4,14.1 h
same,growth rate μ (mean),[2]; strain GLUT5-5,0.375 h⁻¹
same,lag time tlag (mean),[2]; strain GLUT5-5,15.1 h
same,growth rate μ (mean),[2]; strain GLUT5-9,0.370 h⁻¹
same,lag time tlag (mean),[2]; strain GLUT5-9,14.9 h
same,growth rate μ (mean),[2]; strain GLUT6-4,0.281 h⁻¹
same,lag time tlag (mean),[2]; strain GLUT6-4,13.8 h
same,growth rate μ (mean),[2]; strain GLUT6-5,0.279 h⁻¹
same,lag time tlag (mean),[2]; strain GLUT6-5,13.2 h
same,growth rate μ (mean),[2]; strain GLUT6-10,0.277 h⁻¹
same,lag time tlag (mean),[2]; strain GLUT6-10,14.2 h
same,growth rate μ (mean),[2]; strain GLUT7-2,0.304 h⁻¹
same,lag time tlag (mean),[2]; strain GLUT7-2,14.6 h
same,growth rate μ (mean),[2]; strain GLUT7-6,0.261 h⁻¹
same,lag time tlag (mean),[2]; strain GLUT7-6,19.5 h
same,growth rate μ (mean),[2]; strain GLUT7-7,0.193 h⁻¹
same,lag time tlag (mean),[2]; strain GLUT7-7,22.0 h
same,growth rate μ (mean),[2]; strain GLUT8-5,0.247 h⁻¹
same,lag time tlag (mean),[2]; strain GLUT8-5,14.4 h
same,growth rate μ (mean),[2]; strain GLUT8-6,0.272 h⁻¹
same,lag time tlag (mean),[2]; strain GLUT8-6,43.5 h
same,growth rate μ (mean),[2]; strain GLUT8-9,0.196 h⁻¹
same,lag time tlag (mean),[2]; strain GLUT8-9,54.3 h
same,growth rate μ (mean),[2]; strain MG1655 (Table 26),0.216 h⁻¹
same,lag time tlag (mean),[2]; strain MG1655 (Table 26),16.6 h
same,growth rate μ (mean),[2]; strain MG1655 (Table 27),0.212 h⁻¹
same,lag time tlag (mean),[2]; strain MG1655 (Table 27),15.5 h
